Reference: paper PMC4785407, “Reduction Impairs the Antibacterial Activity but Benefits the LPS Neutralization Ability of Human Enteric Defensin 5” (Scientific Reports, 2016)
“Also recorded” adds a separate entry of the source. Like-named read-outs stand apart in the source and are kept apart here. Bridge positions count the residues as written; N and C are the ends. Peptide text beside a SMILES is read from it.

What was measured:
[1] = Isothermal titration calorimetry (ITC), peptides and LPS; assay type: binding; settings: for interaction with LPS (heat release): 1 mg/mL peptide, 10 μg/mL LPS, 25 °C, repeated three times
Description: Interactions between peptides and LPS were monitored using a MicroCal ITC200 system (Malvern, UK) at 25 °C. The concentration of the peptides in the syringe was 1 mg/mL (40 μL). LPS was prepared in sterile water at a concentration of 10 μg/mL (300 μL per cell). Twenty injections (0.2 μL for the first injection and 2 μL for the remaining injections) were applied at 120 s intervals and at a stirring rate of 1,000 rpm. The data were processed by subtracting the baseline heat release from titrations of sterile water into LPS and from 20 mM DTT into LPS. The experiment was repeated three times.

[2] = system: E. coli ML35 (ATCC 43827); test: virtual colony count assay, E. coli ML35; assay type: cell-based; settings: for LD50 (Lethal Dose that kills 50% of bacteria) / LD90 (Lethal Dose that kills 90% of bacteria): ATCC 43827 E. coli ML35, 1 × 10^6 CFU/mL, 10 mM sodium phosphate buffer pH 7.4, 1% TSB, 37 °C, 1 h, duplicate, repeated three times
Description: (§1) Figure 3 Reduction attenuates the antibacterial activity of HD5OX against Gram-negative bacteria. […] Peptides were prepared in sterile water, with the final concentrations of 0.78, 1.56, 3.13, 6.25, 12.5, and 25 μg/mL. […] Zero survival points are not plotted.

[3] = system: Salmonella enterica serovar Typhimurium (ATCC 14028); test: virtual colony count assay, S. Typhimurium; assay type: cell-based; settings: for LD50 (Lethal Dose that kills 50% of bacteria) / LD90 (Lethal Dose that kills 90% of bacteria): ATCC 14028 S. Typhimurium, 1 × 10^6 CFU/mL, 10 mM sodium phosphate buffer pH 7.4, 1% TSB, 37 °C, 1 h, duplicate, repeated three times
Description: as §1

E. coli ML35 cells = test: Membrane depolarization, flow cytometry DiBAC4(3); settings: 6.25 μg/mL; for DP (depolarized cells): 37 °C, 1 h, DiBAC4(3) flow cytometry, representative scatter plot
[4] = Circular dichroism (CD) spectroscopy; assay type: physicochemical; settings: 27 °C; for CD secondary structure in the presence of LPS: 100 μg/mL peptide, 100 μg/mL LPS; for CD secondary structure in SDS micelles: 100 μg/mL, 20 mM SDS
Description: The conformational properties of the peptides were analyzed using an Applied Photophysics Chirascan instrument at 27 °C. A cell with a 1-mm path length was utilized. The CD spectra were obtained from 190–280 nm at 1 nm intervals. The time-per-point was 0.5 s, and the scanning time was approximately 73 s. Peptides (100 μg/mL, 250 μL) prepared in sterile water were examined in the presence of 20 mM sodium dodecyl sulfate (SDS) and 100 μg/mL LPS. Before scanning, peptides were incubated with SDS and LPS at room temperature for 1 h. The data obtained from three independent scans were averaged and smoothed by Pro-Data Chirascan software (version 4.1).

[5] = Biolayer interferometry (BLI), binding to lipid A; settings: for Kd / Koff (dissociation rate constant) / Kon (association rate constant): BLI, 1:1 fit
Description: The recruitment of peptides to lipid A (Sigma L5399) was determined using Forte Bio’s “Octet Red 96” BLI (Pall Life Sciences, US). The amine-reactive second-generation (AR2G) biosensor was activated using 20 mM 1-ethyl-3-[3-dimethylaminopropy] carbodiimide hydrochloride (EDC, Sigma E1769) and 10 mM sulfo-N-hydroxysulfosuccinimide (s-NHS, Sigma 56485). Lipid A was immobilized on biosensors at the concentration of 20 μg/mL until the binding curves reached the plateau. Ethanolamine (1 M, pH 8.5) was used to quench the immobilization. Peptides were prepared in the running buffer (5 mM sodium phosphate buffer, pH 7.4), with concentrations of 200, 400, 600, 800, 1000, and 1200 nM, respectively. Association and disassociation, 5 min for each, were carried out at a shaking speed of 600 rpm. Biosensors were regenerated by 0.1 M Glycine-HCl buffer (pH 2.0). […] The binding thicknesses were processed using Fortebio Data Analysis 7.0 software, in which the methods for y-axis alignment, inter-step correction, and Savitzky-Golay filtering were specified. The equilibrium dissociation constant (KD), calculated as the ratio of the dissociation rate constant (Koff) to the association rate constant (Kon), was generated by a 1:1 fitting model. This experiment was repeated three times.
^a The binding kinetics between peptides and bacterial lipid A were determined with a biolayer interferometry (BLI). Lipid A was immobilized on AR2G biosensors at the concentration of 20 μg/mL until the binding curves reached the plateau. Peptides were prepared in the running buffer (5 mM sodium phosphate buffer, pH 7.4), with concentrations of 200, 400, 600, 800, 1000, and 1200 nM, respectively. Association and disassociation, 5 min for each, were carried out at a shaking speed of 600 rpm. The bindings were processed using Fortebio Data Analysis 7.0 software, which specifies the methods for y-axis alignment, inter-step correction, reference subtraction, and Savitzky-Golay filtering. The experiment was repeated three times.
^b Kon, the association rate constant; Koff, the dissociation rate constant; KD, the equilibrium dissociation constant; R^2, the fitting correlation coefficient. These parameters were generated by a 1:1 fitting model. KD is calculated as the ratio of Koff to Kon. […]

[6] = virtual colony count, 0.78-25 μg/mL, HD5OX vs HD5RED
[7] = AR2G biosensor, 5 mM sodium phosphate buffer pH 7.4, 200-1200 nM, mean ± SD from three independent assays, read-out: KD (equilibrium dissociation constant) binding to lipid A
[8] = lipid A, repeat 1th, read-out: KD
[9] = lipid A, repeat 2th, read-out: KD
[10] = lipid A, repeat 3th, read-out: KD

| Compound | interaction with LPS (heat release) [1] | LD50 (Lethal Dose that kills 50% of bacteria) [2] | LD90 (Lethal Dose that kills 90% of bacteria) [2] | LD50 (Lethal Dose that kills 50% of bacteria) [3] | LD90 (Lethal Dose that kills 90% of bacteria) [3] | DP (depolarized cells) (E. coli ML35 cells) | CD secondary structure in the presence of LPS [4] | CD secondary structure in SDS micelles [4] | Kd [5, 7] | Koff (dissociation rate constant) ([5]; lipid A, repeat 1th) | Kon (association rate constant) ([5]; lipid A, repeat 1th) | Kd [5, 8] | Koff (dissociation rate constant) ([5]; lipid A, repeat 2th) | Kon (association rate constant) ([5]; lipid A, repeat 2th) | Kd [5, 9] | Koff (dissociation rate constant) ([5]; lipid A, repeat 3th) | Kon (association rate constant) ([5]; lipid A, repeat 3th) | Kd [5, 10] | also measured |
| --- | --- | --- | --- | --- | --- | --- | --- | --- | --- | --- | --- | --- | --- | --- | --- | --- | --- | --- | --- |
| CC[C@H](C)[C@@H]1NC(=O)[C@H](CCC(=O)O)NC(=O)[C@@H]2CSSC[C@@H]3NC(=O)[C@H](Cc4ccc(O)cc4)NC(=O)[C@@H](NC(=O)[C@@H](NC(=O)[C@H](C)N)[C@@H](C)O)CSSC[C@@H](C(=O)N[C@@H](CCCNC(=N)N)C(=O)O)NC(=O)[C@H](CSSC[C@H](NC(=O)[C@H](CCCNC(=N)N)NC(=O)CNC(=O)[C@H]([C@@H](C)O)NC(=O)[C@H](CCCNC(=N)N)NC3=O)C(=O)N[C@@H](C)C(=O)N[C@@H]([C@@H](C)O)C(=O)N[C@@H](CCCNC(=N)N)C(=O)N[C@@H](CCC(=O)O)C(=O)N[C@@H](CO)C(=O)N[C@@H](CC(C)C)C(=O)N[C@@H](CO)C(=O)NCC(=O)N[C@@H](C(C)C)C(=O)N2)NC(=O)[C@H](CC(C)C)NC(=O)[C@H](CCCNC(=N)N)NC(=O)[C@H](Cc2ccc(O)cc2)NC(=O)[C@H](CC(C)C)NC(=O)[C@H](CCCNC(=N)N)NC(=O)CNC(=O)[C@H](CO)NC1=O [HD5OX, Oxidized human defensin 5] (H-ATCYCRTGRCATRESLSGVCEISGRLYRLCCR-OH; disulfide 3-31, 5-20, 10-30; N-terminus and C-terminus assumed) | exothermically interacted with 10 μg/mL of LPS | 4.7 ± 0.8 µg/mL | 11.6 ± 1.7 µg/mL | 4.6 ± 0.5 µg/mL | 9.6 ± 0.7 µg/mL | 31.8% | slightly red-shifted | maintained the β-sheet structures | 75 ± 24 nM | 0.000324 s⁻¹ | 6320 M⁻¹ s⁻¹ | 51.3 nM | 0.000536 s⁻¹ | 5410 M⁻¹ s⁻¹ | 99.1 nM | 0.000509 s⁻¹ | 6830 M⁻¹ s⁻¹ | 74.5 nM | antibacterial action against E. coli ML35, relative [2, 6]: more potent action against these bacteria than HD5RED; antibacterial action against S. Typhimurium, relative [3, 6]: more potent action against these bacteria than HD5RED |
| CC[C@H](C)[C@H](NC(=O)[C@H](CCC(=O)O)NC(=O)[C@H](CS)NC(=O)[C@@H](NC(=O)CNC(=O)[C@H](CO)NC(=O)[C@H](CC(C)C)NC(=O)[C@H](CO)NC(=O)[C@H](CCC(=O)O)NC(=O)[C@H](CCCNC(=N)N)NC(=O)[C@@H](NC(=O)[C@H](C)NC(=O)[C@H](CS)NC(=O)[C@H](CCCNC(=N)N)NC(=O)CNC(=O)[C@@H](NC(=O)[C@H](CCCNC(=N)N)NC(=O)[C@H](CS)NC(=O)[C@H](Cc1ccc(O)cc1)NC(=O)[C@H](CS)NC(=O)[C@@H](NC(=O)[C@H](C)N)[C@@H](C)O)[C@@H](C)O)[C@@H](C)O)C(C)C)C(=O)N[C@@H](CO)C(=O)NCC(=O)N[C@@H](CCCNC(=N)N)C(=O)N[C@@H](CC(C)C)C(=O)N[C@@H](Cc1ccc(O)cc1)C(=O)N[C@@H](CCCNC(=N)N)C(=O)N[C@@H](CC(C)C)C(=O)N[C@@H](CS)C(=O)N[C@@H](CS)C(=O)N[C@@H](CCCNC(=N)N)C(=O)O [HD5RED] (H-ATCYCRTGRCATRESLSGVCEISGRLYRLCCR-OH) | heat release was higher than that of HD5OX | 9.9 ± 0.6 µg/mL | 22.5 ± 2.3 µg/mL | 7.9 ± 1.1 µg/mL | 19.5 ± 1.6 µg/mL | 2.04% | adopted a different conformation with two negative ellipticities at 217 nm and 206 nm | transformed into a peptide containing α-helical structures | 140 ± 30 nM | 0.000389 s⁻¹ | 2140 M⁻¹ s⁻¹ | 182 nM | 0.000337 s⁻¹ | 2570 M⁻¹ s⁻¹ | 131 nM | 0.000264 s⁻¹ | 2250 M⁻¹ s⁻¹ | 117 nM | LPS-binding, relative ([1]; weight ratios ≥8.0, vs HD5OX): much stronger than that of HD5OX; fold of concentration needed to inactivate 90% relative to HD5OX ([2]; E. coli ML35 ATCC 43827, higher than HD5OX): 1.9 -fold; fold of concentration needed to inactivate 90% relative to HD5OX ([3]; S. Typhimurium ATCC 14028, higher than HD5OX): 2.0 -fold; membrane depolarization, relative (E. coli ML35 cells; HD5RED vs HD5OX, mean of three independent experiments): less efficiency of HD5RED in inducing membrane depolarization relative to HD5OX; also recorded: significantly lower than that of HD5OX; CD secondary structure in aqueous ([4]; 100 μg/mL in sterile water, vs HD5OX): less effective in forming rigid β-sheet structures; recruitment to lipid A ([5]; 1000 nM, 5 mM sodium phosphate buffer, HD5RED vs HD5OX): fewer HD5RED than HD5OX molecules were recruited to the lipid A; fold KD relative to HD5OX ([5]; lipid A, higher than HD5OX): 1.9 -fold |
